Measured values taken from the supplement of paper PMC13380429.

Tests used:
Conditions in all cases: 72 h
Caco-2 [1] = test: cell viability relative to DMSO; higher = less toxic
Calu-3 [2] = test: as above
HepG2 [3] = test: as above
U2OS [4] = test: as above
Vero E6 [5] = test: as above
Caco-2 [6] = test: relative viability EC50 (midpoint between 100% and the lowest measured viability); higher = less toxic
Calu-3 [7] = test: as above
HepG2 [8] = test: as above
U2OS [9] = test: as above
Vero E6 [10] = test: as above
Caco-2 [11] = test: drug sensitivity score (DSS) for viability; higher = more toxic; extreme values may be limits of the assay
Calu-3 [12] = test: as above
HepG2 [13] = test: as above
U2OS [14] = test: as above
Vero E6 [15] = test: as above

Row | Structure (SMILES) | cell viability (Caco-2 [1]; 1 nM) | cell viability (Caco-2 [1]; 10 nM) | cell viability (Caco-2 [1]; 100 nM) | cell viability (Caco-2 [1]; 1000 nM) | cell viability (Caco-2 [1]; 10000 nM) | cell viability (Calu-3 [2]; 1 nM) | cell viability (Calu-3 [2]; 10 nM) | cell viability (Calu-3 [2]; 100 nM) | cell viability (Calu-3 [2]; 1000 nM) | cell viability (Calu-3 [2]; 10000 nM) | cell viability (HepG2 [3]; 1 nM) | cell viability (HepG2 [3]; 10 nM) | cell viability (HepG2 [3]; 100 nM) | cell viability (HepG2 [3]; 1000 nM) | cell viability (HepG2 [3]; 10000 nM) | cell viability (U2OS [4]; 1 nM) | cell viability (U2OS [4]; 10 nM) | cell viability (U2OS [4]; 100 nM) | cell viability (U2OS [4]; 1000 nM) | cell viability (U2OS [4]; 10000 nM) | cell viability (Vero E6 [5]; 1 nM) | cell viability (Vero E6 [5]; 10 nM) | cell viability (Vero E6 [5]; 100 nM) | cell viability (Vero E6 [5]; 1000 nM) | cell viability (Vero E6 [5]; 10000 nM) | relative viability EC50 (Caco-2 [6]) | relative viability EC50 (Calu-3 [7]) | relative viability EC50 (HepG2 [8]) | relative viability EC50 (U2OS [9]) | relative viability EC50 (Vero E6 [10]) | drug sensitivity score (Caco-2 [11]) | drug sensitivity score (Calu-3 [12]) | drug sensitivity score (HepG2 [13]) | drug sensitivity score (U2OS [14]) | drug sensitivity score (Vero E6 [15])
1 | NC(=O)OCC(COC(N)=O)c1ccccc1 [felbamate] | 92.9% | 97.2% | 95.9% | 99.1% | 97.1% | 91% | 95.8% | 91.5% | 123% | 98.1% | 96.5% | 94.7% | 102% | 106% | 98.5% | 97.8% | 102% | 97.6% | 107% | 104% | 87.8% | 89.8% | 99.6% | 90.3% | 104% | > 10 µM | > 10 µM | > 10 µM | > 10 µM | > 10 µM | 0 | 0 | 0 | 0 | 0
2 | O=C(CCCl)NCCc1ccccc1 [fenaclon] | 81.8% | 126% | 93.7% | 84.5% | 109% | 105% | 99.1% | 97.4% | 96% | 88.3% | 104% | 111% | 99.3% | 119% | 96.2% | 101% | 96.9% | 100% | 92.6% | 103% | 104% | 105% | 100% | 103% | 91.3% | > 10 µM | > 10 µM | > 10 µM | > 10 µM | > 10 µM | 0 | 0 | 0 | 0 | 0
3 | O=C(COc1ccc(Cl)cc1)N1CCN(Cc2ccc3c(c2)OCO3)CC1 [fipexide] | 98.8% | 90.1% | 93.5% | 93.4% | 88.4% | 101% | 93.1% | 103% | 93.5% | 110% | 83.9% | 90.8% | 86.6% | 93.8% | 102% | 102% | 100% | 101% | 95.2% | 96.2% | 97.6% | 99.9% | 101% | 101% | 97.6% | > 10 µM | > 10 µM | > 10 µM | > 10 µM | > 10 µM | 0 | 0 | 0 | 0 | 0
4 | CCC1=C(C)CN(C(=O)NCCc2ccc(S(=O)(=O)NC(=O)N[C@H]3CC[C@H](C)CC3)cc2)C1=O [glimepiride] | 87.2% | 94.3% | 98.9% | 91.4% | 76.2% | 98.6% | 104% | 91.7% | 104% | 98.6% | 83.1% | 90.7% | 104% | 98.7% | 104% | 98.9% | 99.2% | 97.7% | 99.8% | 92.1% | 111% | 110% | 105% | 91.9% | 95.3% | > 10 µM | > 10 µM | > 10 µM | > 10 µM | > 10 µM | 1.8 | 0 | 0 | 0 | 0
5 | CC#CCC(C)[C@H](O)/C=C/[C@@H]1[C@H]2C/C(=C/CCCC(=O)O)C[C@H]2C[C@H]1O (stereo not given in full) [iloprost] | 92.2% | 105% | 100% | 95.2% | 105% | 99.3% | 96.8% | 85% | 91.5% | 103% | 97.8% | 90.6% | 106% | 97.1% | 98.2% | 96% | 101% | 93.3% | 98.4% | 94% | 96.2% | 101% | 97% | 98.8% | 99.3% | > 10 µM | > 10 µM | > 10 µM | > 10 µM | > 10 µM | 0 | 0 | 0 | 0 | 0
6 | C[C@H]1N=C(N(C)C)N=C(N)N1 [imeglimin] | 86.3% | 88% | 96.2% | 97.3% | 97.6% | 97% | 114% | 96.9% | 104% | 104% | 96.4% | 96.7% | 97.7% | 99% | 100% | 99.7% | 105% | 96.9% | 102% | 103% | 92.5% | 96.2% | 92.8% | 101% | 105% | > 10 µM | > 10 µM | > 10 µM | > 10 µM | > 10 µM | 0 | 0 | 0 | 0 | 0
7 | COc1cc2c(cc1OC)CC(=O)N(CCCN(C)C[C@H]1Cc3cc(OC)c(OC)cc31)CC2 [ivabradine] | 98.3% | 85.6% | 102% | 100% | 99.8% | 111% | 85.1% | 98.4% | 101% | 105% | 109% | 113% | 98.2% | 102% | 89.3% | 106% | 102% | 99.6% | 99.1% | 101% | 101% | 99.7% | 100% | 107% | 99.4% | > 10 µM | > 10 µM | > 10 µM | > 10 µM | > 10 µM | 0 | 0 | 0 | 0 | 0
8 | Nc1ccn([C@@H]2CS[C@H](CO)O2)c(=O)n1 [lamivudine] | 83% | 100% | 89.3% | 88.7% | 84.5% | 107% | 89.6% | 89.4% | 96.9% | 97.6% | 93.9% | 93.4% | 98.8% | 99.1% | 106% | 96.9% | 102% | 97.7% | 102% | 97.1% | 102% | 105% | 97.4% | 85.8% | 99.2% | > 10 µM | > 10 µM | > 10 µM | > 10 µM | > 10 µM | 0.7 | 0 | 0 | 0 | 0
9 | O=C1N(c2ccccc2)c2ccccc2C1(Cc1ccncc1)Cc1ccncc1 [linopirdine] | 91.4% | 93.2% | 88.3% | 98.8% | 93.1% | 92.4% | 98.5% | 98.9% | 103% | 97.2% | 111% | 102% | 94.9% | 105% | 102% | 94.6% | 101% | 98.7% | 103% | 98.7% | 106% | 97.3% | 106% | 96.9% | 99.2% | > 10 µM | > 10 µM | > 10 µM | > 10 µM | > 10 µM | 0 | 0 | 0 | 0 | 0
10 | Cc1nccc2[nH]c(=O)ccc12 [medorinone] | 104% | 102% | 102% | 93.9% | 97.8% | 113% | 102% | 91% | 98.8% | 96.3% | 112% | 99.5% | 102% | 96.8% | 109% | 97.9% | 100% | 97.4% | 99.7% | 97.8% | 102% | 101% | 97% | 97.1% | 98.5% | > 10 µM | > 10 µM | > 10 µM | > 10 µM | > 10 µM | 0 | 0 | 0 | 0 | 0
11 | CC(=O)[C@H]1CC[C@H]2[C@@H]3C[C@H](C)C4=CC(=O)CC[C@]4(C)[C@H]3[C@@H](O)C[C@]12C [medrysone] | 90.4% | 97.5% | 98.2% | 101% | 102% | 91.5% | 98.5% | 101% | 91.3% | 93.4% | 102% | 98.4% | 108% | 101% | 112% | 97.6% | 97.4% | 99.8% | 101% | 99.6% | 98% | 95% | 97.9% | 95.6% | 100% | > 10 µM | > 10 µM | > 10 µM | > 10 µM | > 10 µM | 0 | 0 | 0 | 0 | 0
12 | CN1c2c([nH]c(N)nc2=O)NC[C@@H]1CNc1ccc(C(=O)N[C@@H](CCC(=O)O)C(=O)O)cc1 [metafolin] | 95.4% | 90.3% | 85.3% | 98.1% | 102% | 91.1% | 106% | 105% | 96.5% | 96.9% | 102% | 89.8% | 105% | 110% | 108% | 94.9% | 100% | 92.5% | 105% | 101% | 96.1% | 91.6% | 96.3% | 83.2% | 104% | > 10 µM | > 10 µM | > 10 µM | > 10 µM | > 10 µM | 0 | 0 | 0 | 0 | 0
